Earlier results as cited in paper PMC3711574 (Biochemistry, 2012).

System: BHRF-1
Settings: ref [67]

Sequence: MRPEIWIAQELRRIGDEFNAYYARRV [Bim]
- Binding to BHRF-1: binds
